Assay results published in US20150246938A1, “NOVEL OLEFIN DERIVATIVE” (SHIONOGI & CO., LTD., priority 2011, published 2015).

The compounds below were run against T1, recombinant human ACC2 (Homo sapiens, UniProt O00763) (assay: Measurement of inhibitory activity on human ACC2 (MALDI-TOF MS, acetyl CoA to malonyl CoA conversion)). Settings: inhibition activity on human ACC2, untitled table (Table 81); read-out: IC50.
T1 construct: a cDNA encoding human ACC2 (27-2458) was cloned from human kidney cDNA library (Clontech); His-tag (N); made in house; host or cells: Sf-9 insect cells (Bac-to-Bac baculovirus)
T1 sequence (O00763 27-2458): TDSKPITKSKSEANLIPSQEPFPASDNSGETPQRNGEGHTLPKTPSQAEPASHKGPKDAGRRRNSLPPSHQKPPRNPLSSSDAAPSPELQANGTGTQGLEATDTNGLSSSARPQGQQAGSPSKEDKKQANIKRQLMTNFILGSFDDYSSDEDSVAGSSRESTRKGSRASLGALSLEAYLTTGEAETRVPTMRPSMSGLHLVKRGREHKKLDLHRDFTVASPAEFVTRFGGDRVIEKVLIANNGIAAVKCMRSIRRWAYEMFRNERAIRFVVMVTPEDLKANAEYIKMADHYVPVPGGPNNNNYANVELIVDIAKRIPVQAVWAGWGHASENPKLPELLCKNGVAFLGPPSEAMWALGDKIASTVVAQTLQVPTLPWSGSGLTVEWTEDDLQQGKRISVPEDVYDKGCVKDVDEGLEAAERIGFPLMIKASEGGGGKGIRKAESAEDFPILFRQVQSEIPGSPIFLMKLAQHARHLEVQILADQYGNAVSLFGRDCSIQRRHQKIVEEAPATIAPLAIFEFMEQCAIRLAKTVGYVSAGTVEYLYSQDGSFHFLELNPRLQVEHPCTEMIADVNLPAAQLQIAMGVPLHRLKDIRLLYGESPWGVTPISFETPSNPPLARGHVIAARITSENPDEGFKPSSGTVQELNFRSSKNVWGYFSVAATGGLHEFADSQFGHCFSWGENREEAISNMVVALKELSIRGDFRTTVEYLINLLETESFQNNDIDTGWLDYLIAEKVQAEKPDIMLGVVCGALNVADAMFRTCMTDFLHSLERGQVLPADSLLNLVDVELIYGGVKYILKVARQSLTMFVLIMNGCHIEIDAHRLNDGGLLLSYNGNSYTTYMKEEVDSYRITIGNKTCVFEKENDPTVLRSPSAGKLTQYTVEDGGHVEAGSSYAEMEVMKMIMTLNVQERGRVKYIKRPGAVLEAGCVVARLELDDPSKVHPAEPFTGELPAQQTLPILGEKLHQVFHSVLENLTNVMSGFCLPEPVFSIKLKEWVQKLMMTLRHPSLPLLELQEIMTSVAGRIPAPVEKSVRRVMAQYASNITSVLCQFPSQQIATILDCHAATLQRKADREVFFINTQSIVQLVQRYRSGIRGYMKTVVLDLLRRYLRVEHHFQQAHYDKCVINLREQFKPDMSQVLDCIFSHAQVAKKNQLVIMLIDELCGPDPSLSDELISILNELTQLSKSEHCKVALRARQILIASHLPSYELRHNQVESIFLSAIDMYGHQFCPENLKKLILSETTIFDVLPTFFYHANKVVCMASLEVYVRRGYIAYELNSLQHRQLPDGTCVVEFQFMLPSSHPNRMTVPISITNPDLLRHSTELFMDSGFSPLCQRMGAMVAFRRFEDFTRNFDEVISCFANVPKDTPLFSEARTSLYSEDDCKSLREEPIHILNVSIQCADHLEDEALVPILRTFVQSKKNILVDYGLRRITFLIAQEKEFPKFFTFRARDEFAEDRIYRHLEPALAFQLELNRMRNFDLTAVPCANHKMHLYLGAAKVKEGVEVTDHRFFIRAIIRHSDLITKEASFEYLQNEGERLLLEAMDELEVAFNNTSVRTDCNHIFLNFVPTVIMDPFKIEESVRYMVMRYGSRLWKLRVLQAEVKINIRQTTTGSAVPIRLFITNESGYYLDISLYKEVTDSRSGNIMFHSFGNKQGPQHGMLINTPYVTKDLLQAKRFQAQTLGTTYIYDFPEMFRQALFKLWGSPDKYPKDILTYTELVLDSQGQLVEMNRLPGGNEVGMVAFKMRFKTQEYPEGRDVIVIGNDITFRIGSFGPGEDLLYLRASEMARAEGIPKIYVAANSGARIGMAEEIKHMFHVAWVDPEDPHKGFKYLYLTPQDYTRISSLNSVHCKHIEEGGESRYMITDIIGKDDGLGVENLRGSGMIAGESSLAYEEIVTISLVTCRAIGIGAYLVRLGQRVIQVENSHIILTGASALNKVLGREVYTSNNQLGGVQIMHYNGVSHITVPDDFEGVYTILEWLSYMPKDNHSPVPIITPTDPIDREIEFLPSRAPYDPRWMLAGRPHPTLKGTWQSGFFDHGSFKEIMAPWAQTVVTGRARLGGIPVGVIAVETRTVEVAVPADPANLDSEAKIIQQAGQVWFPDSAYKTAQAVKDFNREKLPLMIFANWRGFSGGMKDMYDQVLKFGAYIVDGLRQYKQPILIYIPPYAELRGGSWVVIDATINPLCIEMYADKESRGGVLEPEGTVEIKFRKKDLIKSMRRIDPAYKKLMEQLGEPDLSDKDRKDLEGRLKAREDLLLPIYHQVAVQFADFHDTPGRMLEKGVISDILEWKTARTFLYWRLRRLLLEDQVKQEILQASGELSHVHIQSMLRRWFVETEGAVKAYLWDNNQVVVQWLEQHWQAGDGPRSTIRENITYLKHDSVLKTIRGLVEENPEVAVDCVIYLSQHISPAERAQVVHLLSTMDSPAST
Format: biochemical

Row | SMILES | IC50 [nM]
1 | CC(=O)N[C@@H](C)/C=C/c1cnn(Cc2cc(Cl)c(OCC3CC3)c(Cl)c2)c1 [Compound I-264] | 840
2 | CC(=O)N[C@@H](C)/C=C/c1ccc(Oc2ccc(C3CC3)cc2Cl)nc1 [Compound I-266] | 26
3 | CCCc1ccc(Oc2ccc(/C=C/[C@H](C)NC(C)=O)cn2)cn1 [Compound I-269] | 120
4 | CCOc1ccc(Oc2ccc(/C=C(\C)C(C)NC(C)=O)cn2)c(Cl)c1 (centres unmarked) [Compound I-271] | 79
5 | CC(=O)N[C@@H](C)/C=C/c1ccc(Oc2ccc(Cl)cc2Cl)nc1 [Compound I-273] | 99
6 | CC(=O)N[C@@H](C)/C=C/c1cnc(Oc2ccc(Br)c(Cl)c2)nc1 [Compound I-274] | 350
7 | CC#Cc1ccc(Oc2ccc(/C=C/[C@H](C)NC(C)=O)cn2)c(Cl)c1 [Compound I-275] | 17
8 | CCOc1cc(F)cc(Oc2ccc(/C=C/[C@H](C)NC(C)=O)cn2)c1 [Compound I-276] | 150
9 | CC(=O)N[C@@H](C)/C=C/c1ccc(Oc2cc(F)cc(OC(C)C)c2)nc1 [Compound I-277] | 230
10 | CC(=O)N[C@@H](C)/C=C/c1ccc(Oc2cc(OC(C)C)ccc2F)nc1 [Compound I-279] | 59
11 | CC(=O)N[C@@H](C)/C=C/c1ccc(Oc2ccc(F)c(OC(C)C)c2)nc1 [Compound I-281] | 130
12 | CC(=O)N[C@@H](C)/C=C/c1cnc(Oc2ccc(NC(=O)CC(C)C)c(Cl)c2)nc1 [Compound I-284] | 860
13 | CCN(CC)c1ccc(Oc2ccc(/C=C/[C@H](C)NC(C)=O)cn2)c(Cl)c1 [Compound I-288] | 36
14 | CC(=O)N[C@@H](C)/C=C/c1ccc(Oc2ccc(Br)c(Cl)c2)nc1 [Compound I-289] | 28
15 | CC(=O)NC(C)(C)/C(C)=C/c1ccc(Oc2ccc(OCC3CC3)cc2Cl)nc1 [Compound I-290] | 600
16 | CC(=O)N[C@@H](C)/C=C/c1ccc(Oc2cncc(OCC3CC3)c2)nc1 [Compound I-293] | 1300
17 | CCCc1ncc(Oc2ccc(/C=C/[C@H](C)NC(C)=O)cn2)cc1Cl [Compound I-294] | 150

The remaining compounds from weak to strong by IC50, led by results:

Row | IC50 [nM] | SMILES
18 | 3200 | CC(=O)NC(C)/C(C)=C/c1ccc(Oc2ccc(O)cc2Cl)nc1 (centres unmarked) [Compound I-283]
19 | 1600 | CC(=O)N[C@@H](C)/C=C/c1cnn(Cc2cc(F)c(OCC3CC3)cc2F)c1 [Compound I-292]
20 | 1100 | CC(=O)N[C@@H](C)/C=C/c1cnn(Cc2cc(F)c(OCC3CC3)c(Cl)c2)c1 [Compound I-265]
21 | 660 | CC(=O)N[C@@H](C)/C=C/c1cnn(Cc2ccc(OCC3CC3)c(Cl)c2Cl)c1 [Compound I-262]
22 | 450 | CC(=O)N[C@@H](C)/C=C/c1ccc(Oc2ccc(N3CCCC3=O)cc2Cl)nc1 [Compound I-272]
23 | 390 | COc1ccc(Oc2ccc(/C=C(\C)C(C)NC(C)=O)cn2)c(Cl)c1 (centres unmarked) [Compound I-270]
24 | 170 | CCOc1cc(Oc2ccc(/C=C/[C@H](C)NC(C)=O)cn2)ccc1F [Compound I-280]
25 | 110 | CC(=O)N[C@@H](C)/C=C/c1ccc(Oc2ccc(-c3ncco3)cc2Cl)nc1 [Compound I-268]
26 | 96 | CC(=O)N[C@@H](C)/C=C/c1cnc(Oc2ccc(NC3CCCC3)c(Cl)c2)nc1 [Compound I-285]
27 | 79 | CCOc1ccc(F)c(Oc2ccc(/C=C/[C@H](C)NC(C)=O)cn2)c1 [Compound I-278]
28 | 48 | CCOc1ccc(Oc2cnc(/C=C/[C@H](C)NC(C)=O)cn2)c(Cl)c1 [Compound I-286]
29 | 44 | CC(=O)N[C@@H](C)/C=C/c1ccc(Oc2ccc(-c3ccccc3)cc2Cl)nc1 [Compound I-267]
30 | 18 | CC(=O)N[C@@H](C)/C=C/c1ccc(Oc2ccc(CCC3CC3)cc2Cl)nc1 [Compound I-287]
31 | 18 | CC(=O)N[C@@H](C)/C=C/c1cnc(Oc2ccc(OCC3CC3)c(Cl)c2)cn1 [Compound I-291]
32 | 13 | CC(=O)NC(C)/C(C)=C/c1ccc(Oc2ccc(OCC3CC3)cc2Cl)nc1 (centres unmarked) [Compound I-282]
